Data: ChEMBL document CHEMBL3885861, “Open TG-GATES”

Species: Rattus norvegicus
Test: Open TG-GATES - Regimen: Single
Type: toxicity, organism-based, Sprague-Dawley
Parameters: regimen Single, gender Male, age 6 weeks
Settings: in vivo, po, 0 mg/kg, route gavage, dose level Control; for APTT / Bas / Eos / Fbg / Hb / Ht / Lym / MCH / MCHC / MCV / Mono / Neu / PT / Plat / RBC / Ret / WBC: tissue Blood; for KIDNEY_L / KIDNEY_R / KIDNEY_TOTAL: tissue Kidney; for LIVER: tissue Liver; for A/G / ALP / ALT / AST / BUN / CRE / Ca / Cl / DBIL / GLC / IP / K / LDH / Na / PL / RALB / TBIL / TC / TG / TP / gamma-GTP: tissue Plasma

SMILES: C[C@]12CCC(=O)C=C1CC[C@@H]1[C@@H]2CC[C@@]2(C)[C@H]1CC[C@]2(C)O [METHYLTESTOSTERONE]
- TERMINAL_BW (3 h): 202.4 g
- APTT (3 h): 15.7 s
- Bas (3 h): 0%
- Eos (3 h): 1%
- Fbg (3 h): 277 mg/dL
- Hb (3 h): 13.3 g/dL
- Ht (3 h): 39%
- Lym (3 h): 74.2%
- MCH (3 h): 21.5 pg
- MCHC (3 h): 34%
- MCV (3 h): 63.3 fL
- Mono (3 h): 3.6%
- Neu (3 h): 20.6%
- PT (3 h): 13.2 s
- Plat (3 h): 111.8 x10_4/uL
- RBC (3 h): 616.6 x10_4/ul
- Ret (3 h): 8.5%
- WBC (3 h): 71.2 x10_2/uL
- KIDNEY_L (3 h): 0.9 g
- KIDNEY_R (3 h): 0.9 g
- KIDNEY_TOTAL (3 h): 1.8 g
- LIVER (3 h): 8.7 g
- A/G (3 h): 0.9
- ALP (3 h): 1644.6 IU/L
- ALT (3 h): 45.4 IU/L
- AST (3 h): 80.2 IU/L
- BUN (3 h): 9.6 mg/dL
- CRE (3 h): 0.2 mg/dL
- Ca (3 h): 10.9 mg/dL
- Cl (3 h): 105.6 meq/L
- DBIL (3 h): 0.01 mg/dL
- GLC (3 h): 182.8 mg/dL
- IP (3 h): 9.8 mg/dL
- K (3 h): 4.4 meq/L
- LDH (3 h): 59.4 IU/L
- Na (3 h): 142 meq/L
- PL (3 h): 136.4 mg/dL
- RALB (3 h): 2.6 g/dL
- TBIL (3 h): 0.038 mg/dL
- TC (3 h): 86.2 mg/dL
- TG (3 h): 31.8 mg/dL
- TP (3 h): 5.5 g/dL
- gamma-GTP (3 h): 1.6 IU/L
- TERMINAL_BW (6 h): 202.9 g
- APTT (6 h): 17.1 s
- Bas (6 h): 0%
- Eos (6 h): 0.8%
- Fbg (6 h): 299 mg/dL
- Hb (6 h): 13.1 g/dL
- Ht (6 h): 38.7%
- Lym (6 h): 75.6%
- MCH (6 h): 21.5 pg
- MCHC (6 h): 34%
- MCV (6 h): 63.4 fL
- Mono (6 h): 3.6%
- Neu (6 h): 19.4%
- PT (6 h): 13.2 s
- Plat (6 h): 112.5 x10_4/uL
- RBC (6 h): 612 x10_4/ul
- Ret (6 h): 8.2%
- WBC (6 h): 68.1 x10_2/uL
- KIDNEY_L (6 h): 0.9 g
- KIDNEY_R (6 h): 0.9 g
- KIDNEY_TOTAL (6 h): 1.7 g
- LIVER (6 h): 8.5 g
- A/G (6 h): 0.9
- ALP (6 h): 1516.2 IU/L
- ALT (6 h): 41.8 IU/L
- AST (6 h): 72.4 IU/L
- BUN (6 h): 9 mg/dL
- CRE (6 h): 0.2 mg/dL
- Ca (6 h): 10.8 mg/dL
- Cl (6 h): 108 meq/L
- DBIL (6 h): 0.012 mg/dL
- GLC (6 h): 185.4 mg/dL
- IP (6 h): 10.1 mg/dL
- K (6 h): 4.1 meq/L
- LDH (6 h): 65.6 IU/L
- Na (6 h): 142.2 meq/L
- PL (6 h): 133.4 mg/dL
- RALB (6 h): 2.6 g/dL
- TBIL (6 h): 0.046 mg/dL
- TC (6 h): 79.8 mg/dL
- TG (6 h): 40.6 mg/dL
- TP (6 h): 5.5 g/dL
- gamma-GTP (6 h): 1.4 IU/L
- TERMINAL_BW (9 h): 203.4 g
- APTT (9 h): 16.8 s
- Bas (9 h): 0%
- Eos (9 h): 1%
- Fbg (9 h): 285.6 mg/dL
- Hb (9 h): 13.2 g/dL
- Ht (9 h): 38.5%
- Lym (9 h): 74.4%
- MCH (9 h): 21.3 pg
- MCHC (9 h): 34.2%
- MCV (9 h): 62.4 fL
- Mono (9 h): 3%
- Neu (9 h): 21.2%
- PT (9 h): 12.8 s
- Plat (9 h): 108.1 x10_4/uL
- RBC (9 h): 616.6 x10_4/ul
- Ret (9 h): 8.5%
- WBC (9 h): 59.4 x10_2/uL
- KIDNEY_L (9 h): 0.9 g
- KIDNEY_R (9 h): 0.9 g
- KIDNEY_TOTAL (9 h): 1.8 g
- LIVER (9 h): 7.9 g
- A/G (9 h): 0.9
- ALP (9 h): 1387.4 IU/L
- ALT (9 h): 42.2 IU/L
- AST (9 h): 76.2 IU/L
- BUN (9 h): 7.4 mg/dL
- CRE (9 h): 0.2 mg/dL
- Ca (9 h): 10.4 mg/dL
- Cl (9 h): 105.2 meq/L
- DBIL (9 h): 0.01 mg/dL
- GLC (9 h): 171.4 mg/dL
- IP (9 h): 10.6 mg/dL
- K (9 h): 4.1 meq/L
- LDH (9 h): 60.6 IU/L
- Na (9 h): 141 meq/L
- PL (9 h): 137.4 mg/dL
- RALB (9 h): 2.5 g/dL
- TBIL (9 h): 0.044 mg/dL
- TC (9 h): 90.2 mg/dL
- TG (9 h): 23 mg/dL
- TP (9 h): 5.4 g/dL
- gamma-GTP (9 h): 1.4 IU/L
- TERMINAL_BW (24 h): 210.8 g
- APTT (24 h): 17.4 s
- Bas (24 h): 0%
- Eos (24 h): 1%
- Fbg (24 h): 275 mg/dL
- Hb (24 h): 13.2 g/dL
- Ht (24 h): 38.6%
- Lym (24 h): 76%
- MCH (24 h): 21.7 pg
- MCHC (24 h): 34.2%
- MCV (24 h): 63.6 fL
- Mono (24 h): 2.8%
- Neu (24 h): 19.6%
- PT (24 h): 12.9 s
- Plat (24 h): 111.5 x10_4/uL
- RBC (24 h): 607.4 x10_4/ul
- Ret (24 h): 8.1%
- WBC (24 h): 74.8 x10_2/uL
- KIDNEY_L (24 h): 0.9 g
- KIDNEY_R (24 h): 0.9 g
- KIDNEY_TOTAL (24 h): 1.9 g
- LIVER (24 h): 9.8 g
- A/G (24 h): 0.9
- ALP (24 h): 1818.4 IU/L
- ALT (24 h): 48.4 IU/L
- AST (24 h): 74.2 IU/L
- BUN (24 h): 14.8 mg/dL
- CRE (24 h): 0.2 mg/dL
- Ca (24 h): 11.1 mg/dL
- Cl (24 h): 106.2 meq/L
- DBIL (24 h): 0.02 mg/dL
- GLC (24 h): 194.2 mg/dL
- IP (24 h): 8.1 mg/dL
- K (24 h): 4.3 meq/L
- LDH (24 h): 63.4 IU/L
- Na (24 h): 140.8 meq/L
- PL (24 h): 149.8 mg/dL
- RALB (24 h): 2.7 g/dL
- TBIL (24 h): 0.036 mg/dL
- TC (24 h): 80.8 mg/dL
- TG (24 h): 114.6 mg/dL
- TP (24 h): 5.7 g/dL
- gamma-GTP (24 h): 1.4 IU/L
